This data set can be described thus: Solubility in aqueous media. It counts as physicochemical.

Structures are written as SMILES.

With `CCCOC(=O)Cc1ccc(OCC(=O)N(CC)CC)c(OCC)c1` [Compound 1, [4-[(N,N-diethylcarbamoyl)methoxy]-3-ethoxyphenyl]acetic acid propyl ester], the “Solubility in aqueous media” value is on record as “poorly, if, at all soluble”.

Values taken from patent US7790766B2, “Pharmaceutical compositions of short-acting sedative hypnotic agent” (Theravance, Inc., priority 2003, dated 2010).
